Measurements from patent publication US9084828B2, “Oligomer-protein tyrosine kinase inhibitor conjugates” (Nektar Therapeutics, priority 2009, dated 2015).

Biological target: ABL (Homo sapiens, UniProt P00519)
Test: ABL tyrosine kinase inhibition, off-chip incubation mobility-shift kinase assay (Caliper LABCHIP 3000)
Conditions: for IC50: ABL, ATP at Km 14 μM, unit inferred; for ABL AVG % Activity at Specific Concentration: average of replicate wells
[1] = at 1.0E−09 (concentration unit not given)
[2] = at 1.0E−10 (concentration unit not given)
[3] = at 1.0E−11 (concentration unit not given)
[4] = at 3.0E−09 (concentration unit not given)
[5] = at 3.0E−10 (concentration unit not given)
[6] = at 3.0E−11 (concentration unit not given)

ABL, sequence (P00519 whole entry): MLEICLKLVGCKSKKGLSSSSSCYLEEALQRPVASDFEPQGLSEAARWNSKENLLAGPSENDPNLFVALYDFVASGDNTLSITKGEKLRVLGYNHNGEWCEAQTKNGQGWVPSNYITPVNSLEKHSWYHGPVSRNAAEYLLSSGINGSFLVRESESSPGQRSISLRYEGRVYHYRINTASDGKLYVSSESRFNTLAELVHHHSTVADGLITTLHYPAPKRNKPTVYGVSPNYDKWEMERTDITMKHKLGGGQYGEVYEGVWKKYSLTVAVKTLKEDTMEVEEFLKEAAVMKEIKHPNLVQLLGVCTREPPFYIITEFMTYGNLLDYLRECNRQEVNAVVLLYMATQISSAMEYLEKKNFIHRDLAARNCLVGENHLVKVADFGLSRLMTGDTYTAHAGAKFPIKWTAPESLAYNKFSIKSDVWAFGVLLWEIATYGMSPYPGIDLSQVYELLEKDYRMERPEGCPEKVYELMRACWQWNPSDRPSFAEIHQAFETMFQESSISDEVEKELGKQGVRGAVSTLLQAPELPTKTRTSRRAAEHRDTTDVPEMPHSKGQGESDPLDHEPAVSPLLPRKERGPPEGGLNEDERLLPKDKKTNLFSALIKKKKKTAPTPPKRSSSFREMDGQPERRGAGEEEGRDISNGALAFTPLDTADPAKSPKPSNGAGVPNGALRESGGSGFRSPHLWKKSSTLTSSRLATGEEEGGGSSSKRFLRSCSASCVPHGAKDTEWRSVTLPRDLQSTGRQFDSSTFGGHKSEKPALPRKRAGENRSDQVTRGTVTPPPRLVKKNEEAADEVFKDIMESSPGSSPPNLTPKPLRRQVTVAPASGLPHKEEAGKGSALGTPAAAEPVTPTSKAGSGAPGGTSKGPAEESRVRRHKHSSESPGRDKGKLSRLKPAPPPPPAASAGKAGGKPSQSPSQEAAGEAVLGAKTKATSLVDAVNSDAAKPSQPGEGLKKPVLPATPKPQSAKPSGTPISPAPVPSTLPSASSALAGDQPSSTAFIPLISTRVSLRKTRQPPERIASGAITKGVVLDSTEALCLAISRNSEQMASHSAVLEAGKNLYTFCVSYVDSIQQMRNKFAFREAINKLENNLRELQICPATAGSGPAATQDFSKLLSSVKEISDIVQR

SMILES | IC50 [nM] | ABL AVG % Activity at Specific Concentration [1] [%] | ABL AVG % Activity at Specific Concentration [2] [%] | ABL AVG % Activity at Specific Concentration [3] [%] | ABL AVG % Activity at Specific Concentration [4] [%] | ABL AVG % Activity at Specific Concentration [5] [%] | ABL AVG % Activity at Specific Concentration [6] [%]
COCCOCCOCCOCCOCCNC(=O)OCCN1CCN(c2cc(Nc3ncc(C(=O)Nc4c(C)cccc4Cl)s3)nc(C)n2)CC1 [mPEG5-NHCOO-Dasatinib] | 0.3 | 4 | 80 | 97 | −1 | 45 | 94
COCCOCCOCCOCC(=O)N[C@H](C(=O)OCCN1CCN(c2cc(Nc3ncc(C(=O)Nc4c(C)cccc4Cl)s3)nc(C)n2)CC1)C(C)C [mPEG3-Val-Dasatinib] | 0.37 | 10 | 85 | 98 | 0 | 54 | 95
COCCOCCOCCOCC(=O)NC(CC(C)C)C(=O)OCCN1CCN(c2cc(Nc3ncc(C(=O)Nc4c(C)cccc4Cl)s3)nc(C)n2)CC1 (centres unmarked) [mPEG3-Leu-Dasatinib] | 0.43 | 14 | 85 | 99 | 1 | 62 | 97

The remaining molecules from weak to strong by IC50, led by results:

IC50 [nM] | ABL AVG % Activity at Specific Concentration [1] [%] | ABL AVG % Activity at Specific Concentration [2] [%] | ABL AVG % Activity at Specific Concentration [3] [%] | ABL AVG % Activity at Specific Concentration [4] [%] | ABL AVG % Activity at Specific Concentration [5] [%] | ABL AVG % Activity at Specific Concentration [6] [%] | SMILES
0.31 | 4 | 80 | 97 | −1 | 47 | 92 | COCCOCCOCCOCCOCCOCCOCCOCCOCCNC(=O)OCCN1CCN(c2cc(Nc3ncc(C(=O)Nc4c(C)cccc4Cl)s3)nc(C)n2)CC1 [mPEG9-NHCOO-Dasatinib]
0.29 | 2 | 80 | 98 | −1 | 44 | 92 | COCCOCCOCCOCC(=O)OCCN1CCN(c2cc(Nc3ncc(C(=O)Nc4c(C)cccc4Cl)s3)nc(C)n2)CC1 [mPEG3-COO-Dasatinib]
